According to patent publication US8318782B2, “Mitotic kinesin inhibitor” (Kyowa Hakko Kirin Co., Ltd., priority 2003, dated 2012):

Target: T1, human Eg5 motor domain (Homo sapiens, UniProt P52732)
T1 construct: A plasmid expressing the motor domain of human Eg5 was constructed; made in house; host or cells: Escherichia coli BL21 (DE3)
T1 sequence (P52732 18-359 limits assumed): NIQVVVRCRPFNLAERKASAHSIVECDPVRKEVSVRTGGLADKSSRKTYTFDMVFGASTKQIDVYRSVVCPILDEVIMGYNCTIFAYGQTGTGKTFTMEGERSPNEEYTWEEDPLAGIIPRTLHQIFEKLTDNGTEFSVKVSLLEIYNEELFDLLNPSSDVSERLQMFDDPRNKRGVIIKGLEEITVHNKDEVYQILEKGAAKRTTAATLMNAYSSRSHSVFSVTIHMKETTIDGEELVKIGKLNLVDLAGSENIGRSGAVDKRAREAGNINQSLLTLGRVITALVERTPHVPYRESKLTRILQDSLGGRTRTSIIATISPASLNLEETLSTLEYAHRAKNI
Experiment: Eg5 enzyme inhibition test (2) (ATPase activity, Eg5 motor domain)
Format: biochemical
Details: human Eg5 motor domain purified sample, 30° C. for 30 minutes, absorbance at 360 nm
Method: A recombinant human Eg5 motor domain protein was prepared by referring to the literature [Biochemistry, Vol. 35, p. […] A plasmid expressing the motor domain of human Eg5 was constructed, and transformed into Escherichia coli BL21 (DE3). The transformant was cultured at 25° C., and when OD600 reached 0.74, isopropyl-β-D-thiogalactoside was added at a final concentration of 0.5 mmol/L. The transformant was further cultured for 4 hours, and then the culture medium was centrifuged to collect the cells. The cells were suspended in a buffer and ultrasonicated, and then the sonicated solution was centrifuged to recover the supernatant. The supernatant was purified by cation exchange column chromatography to obtain a partially-purified sample. Furthermore, the partially purified sample was purified by gel filtration column chromatography to obtain a finally purified sample.
Measurement of the ATPase activity of Eg5 was carried out by referring to the literatures EEMBO Journal, Vol. 13, p. […] Solution A was dispensed into each well of a 96-well plate as 45 μL portions. Solution B was used to serially dilute a test compound. The diluted test compound solutions in a volume of 30 μL were mixed with Solution A added beforehand in each well of the 96-well plate to start the enzymatic reaction. The enzymatic reaction was performed at 30° C. for 30 minutes.

Question: For `CN(C)CCCS(=O)(=O)NCC1(c2ccccc2)SC(NC(=O)C(C)(C)C)=NN1C(=O)C(C)(C)C` (stereo not shown) [Compound 238], which IC50 is on record?
Answer: ≤ 2 µM

Question: `CC(C)C(=O)NC1=NN(C(=O)C(C)C)C(CCNS(C)(=O)=O)(c2ccccc2)S1` (stereo not shown) [Compound 100] was tested. Which IC50 did it give?
Answer: ≤ 2 µM

Question: `CCS(=O)(=O)NCC1(c2ccccc2)SC(NC(=O)C(C)(C)C)=NN1C(=O)C(C)(C)C` (stereo not shown) [Compound 97] was tested. Which IC50 did it give?
Answer: ≤ 2 µM

Question: `CC(=O)N1N=C(NC(=O)C(C)(C)C)SC1(CNS(=O)(=O)CCN(C)C)c1ccccc1` (stereo not shown) [Compound 174] was tested. Which IC50 did it give?
Answer: ≤ 2 µM

Question: With `CC(C)(C)C(=O)NC1=NN(C(=O)C(C)(C)C)C(CNS(=O)(=O)CCCN)(c2ccccc2)S1` (stereo not shown) [Compound 221] as the compound, how does the IC50 read?
Answer: ≤ 2 µM

Question: With `CC(=O)N1N=C(N2CCCCC2=O)SC1(CNS(C)(=O)=O)c1ccccc1` (stereo not shown) [Compound 154] as the compound, how does the IC50 read?
Answer: ≤ 2 µM

Question: With `CC(=O)NC1=NN(C(C)=O)C(C)(c2sccc2Cl)S1` (stereo not shown) [Compound 134] as the compound, how does the IC50 read?
Answer: ≤ 2 µM

Question: With `CCNCCS(=O)(=O)NCC1(c2ccccc2)SC(NC(=O)C(C)(C)C)=NN1C(=O)C(C)(C)C` (stereo not shown) [Compound 176] as the compound, how does the IC50 read?
Answer: ≤ 2 µM

Question: Which IC50 does the source give for `CC(C)(C)C(=O)NC1=NN(C(=O)C(C)(C)C)C(CCC(=O)NCCO)(c2ccccc2)S1` (stereo not shown) [Compound 111] here?
Answer: ≤ 2 µM

Question: For `CCN(C)CCS(=O)(=O)NCC1(c2ccccc2)SC(NC(=O)C(C)(C)C)=NN1C(=O)C(C)(C)C` (stereo not shown) [Compound 264], which IC50 is on record?
Answer: ≤ 2 µM

Question: How did the IC50 turn out when `CC(=O)N1N=C(N2CCCC2=O)SC1(CNS(C)(=O)=O)c1ccccc1` (stereo not shown) [Compound 152] was run?
Answer: ≤ 2 µM

Question: `CC(C)(C)C(=O)NC1=NN(C(=O)C(C)(C)C)C(CNS(C)(=O)=O)(c2ccccc2)S1` (stereo not shown) [Compound 95] was tested. Which IC50 did it give?
Answer: ≤ 2 µM

Question: For `C=CS(=O)(=O)NCC1(c2ccccc2)SC(NC(=O)C(C)(C)C)=NN1C(=O)C(C)(C)C` (stereo not shown) [Compound 171], which IC50 is on record?
Answer: ≤ 2 µM

Question: Which IC50 does the source give for `CC(C)(C)C(=O)NC1=NN(C(=O)C(C)(C)C)C(CCC(N)=O)(c2ccccc2)S1` (stereo not shown) [Compound 107] here?
Answer: ≤ 2 µM

Question: With `CC(C)(C)C(=O)NC1=NN(C(=O)C(C)(C)C)C(CCN)(c2ccccc2)S1` (stereo not shown) [Compound 210] as the compound, how does the IC50 read?
Answer: ≤ 2 µM

Question: Which IC50 does the source give for `CN(C)CCC1(c2ccccc2)SC(NC(=O)C(C)(C)C)=NN1C(=O)C(C)(C)C` (stereo not shown) [Compound 104] here?
Answer: ≤ 2 µM
